Assay results from patent US6852700B1, “Colostrinin, and uses thereof” (Ludwig Hirzfeld Institute of Immunology and Experimental …, priority 1996, dated 2005).
Ends that are not written are not given here.

Columns and labels:
[1] = tested on: lymphocytes present in whole blood; test: Induction of cytokines in vitro in whole blood cultures; format: cell-based, human
Procedure: Induction of cytokines by the polypeptide Colostrinin™ in vitro on blood taken from healthy and sick volunteers taking the pharmaceutical in the form stated in Example III, in cyclic treatment, is carried out as follows.
Whole blood, containing 10 units per 1 ml of heparin without preservatives is diluted at 1:10 ratio in RPMI 1640 culture medium. Incubation is conducted in the same culture medium without inducers (negative control), or in the presence of 1-100 μg/ml of the polypeptide Colostrinin™ or in the presence of 2 μg/ml blood of phytohaemagglutinin (PHA) and 2 μg/ml blood of lipopolysaccharide (LPS), at a temperature of 37° C., in an atmosphere of 5% carbon dioxide, for 20 hours. Samples with mixture of PHA and LPS are the positive control, as they can stimulate the maximum quantities of cytokines.

[2] = tested on: lymphocytes isolated from cord blood (CBL); test: Induction of cytokines in a culture of lymphocytes isolated from cord blood (CBL); format: cell-based, human; conditions: 20 hours
Procedure: Cord blood obtained from the Gynaecological-Obstetric Department of the Specialist District Hospital in Wroclaw. Induction of cytokines by Colostrinin™ in vitro in lymphocytes of cord blood taken 4-6 hours after parturition is effected in the following way.
The lymphocytes are isolated using a Ficoll-Paque® gradient containing 5.7 g of the component Ficoll 400 and 9.0 g of the component Diatrizoate Sodium per 100 ml. The lymphocytes isolated are suspended in RPMI-1640 culture medium at density of 2×10^6 lymphocyte cells per 1 ml of culture medium. Colostrinin™ at concentration of 1-20 μg/ml or phytohaemagglutinin at concentration of 10 μg/ml is added to the lymphocyte suspension. The culture is incubated for 20 hours at a temperature of 37° C. Then the level of cytokines in the culture fluids is determined by biological methods.

mice = test: Toxicological studies on mice; format: in vivo; conditions: both after oral and parenteral administration
mice of the NZB line = test: Haemolytic anaemia in mice of the NZB line; format: in vivo; conditions: intraperitoneal administration
sarcoma 180 = test: Growth of sarcoma 180 in mice; format: in vivo; conditions: intraperitoneal administration in mice
[3] = tested on: mice exposed to gamma radiation; test: Radiation sickness in mice exposed to gamma radiation; format: in vivo
[4] = tested on: patients with Alzheimer's disease; test: Treatment of volunteer patients with Alzheimer's disease with tablets for sucking; format: in vivo, human
Procedure: (§1) The method of treatment of disorders of the central nervous system was investigated on a group of volunteer patients in the early and moderate stages of Alzheimer's disease. The dosage units were administered in the form of tablets for sucking, between meals, containing 0.00015 g of Colostrinin™ defined in Examples I and III. Firstly, 1 tablet was used daily for a period of 3 weeks, then therapy was interrupted for 2-4 weeks and treatment was repeated, administering 2 tablets daily for 3 weeks. […] This is manifested by an inability to synthesise IFN and also tumour necrosis factor TNF-α. This phenomenon permits quantitative measurements of the action of active agent.
This was followed by a 3-week pause in treatment (during the pause, the tolerance to the inducer returns to normal). Blood samples for investigating stimulation of IFN-γ by Colostrinin™ and control inducers (PHA-10 μg/ml) were taken every week. The method of performing the tests for induction of cytokines and their quantitative determination were described in previous sections.
as §1, with “early” for “early and moderate”, “sucking” for “sucking,”, “NP” for “Colostrinin™”, “Example II.” for “Examples I and III.”, “3” for “2-4”

human volunteers = conditions: tablets for sucking, at least 25 μg, at least one daily, about 3 weeks
[5] = donor four breast cancer, dose 10 μg/ml
[6] = donor four breast cancer, dose 100 μg/ml
[7] = donor one. Alzheimer's disease, dose 10 μg/ml
[8] = donor one. Alzheimer's disease, dose 100 μg/ml
[9] = donor six healthy young soldier, dose 1 μg/ml
[10] = donor six healthy young soldier, dose 10 μg/ml
[11] = donor six healthy young soldier, dose 100 μg/ml
[12] = donor three schizophrenia, dose 10 μg/ml
[13] = donor three schizophrenia, dose 100 μg/ml
[14] = donor two healthy young soldier, dose 1 μg/ml
[15] = donor two healthy young soldier, dose 10 μg/ml
[16] = donor two healthy young soldier, dose 100 μg/ml
[17] = healthy volunteers, inducer dose 10 μg/ml, 20 hours
[18] = healthy volunteers, inducer dose 100 μg/ml, 20 hours
[19] = patients with Alzheimer's disease, inducer dose 10 μg/ml
[20] = patients with Alzheimer's disease, inducer dose 100 μg/ml
[21] = early and moderate Alzheimer's disease, 1 tablet daily 3 weeks, pause 2-4 weeks, 2 tablets daily 3 weeks
[22] = early Alzheimer's disease, NP tablets, 1 daily 3 weeks, pause 3 weeks, 2 daily 3 weeks

Colostrinin ™
production of cytokines, dose dependence ([1]; concentrations of 1-100 μg/ml, whole blood): stimulates the production of cytokines in a dose-dependent fashion
production of cytokines (IFN-γ, TNF-α, IL-6, IL-10, growth factors) ([1]; cultures of lymphocytes of human peripheral blood (including cord blood)): stimulates the production of cytokines
Titres of IFN determined by Antivirus biotest [1, 5]: 50 units/ml
Titres of IFN determined by ELISA IFN-γ [1, 5]: 307 pg/mL
Titres of IFN determined by Antivirus biotest [1, 6]: 70 units/ml
Titres of IFN determined by ELISA IFN-γ [1, 6]: 523 pg/mL
Titres of IFN determined by Antivirus biotest [1, 7]: 20 units/ml
Titres of IFN determined by ELISA IFN-γ [1, 7]: 427 pg/mL
Titres of IFN determined by Antivirus biotest [1, 8]: 40 units/ml
Titres of IFN determined by ELISA IFN-γ [1, 8]: 400 pg/mL
Titres of IFN determined by Antivirus biotest [1, 9]: 100 units/ml
Titres of IFN determined by ELISA IFN-γ [1, 9]: 2690 pg/mL
Titres of IFN determined by Antivirus biotest [1, 10]: 200 units/ml
Titres of IFN determined by ELISA IFN-γ [1, 10]: 3778 pg/mL
Titres of IFN determined by Antivirus biotest [1, 11]: 600 units/ml
Titres of IFN determined by ELISA IFN-γ [1, 11]: 3941 pg/mL
Titres of IFN determined by Antivirus biotest [1, 12]: 6 units/ml
Titres of IFN determined by ELISA IFN-γ [1, 12]: 29 pg/mL
Titres of IFN determined by Antivirus biotest [1, 13]: 6 units/ml
Titres of IFN determined by ELISA IFN-γ [1, 13]: 29 pg/mL
Titres of IFN determined by Antivirus biotest [1, 14]: 100 units/ml
Titres of IFN determined by ELISA IFN-γ [1, 14]: 1413 pg/mL
Titres of IFN determined by Antivirus biotest [1, 15]: 300 units/ml
Titres of IFN determined by ELISA IFN-γ [1, 15]: 3402 pg/mL
Titres of IFN determined by Antivirus biotest [1, 16]: 300 units/ml
Titres of IFN determined by ELISA IFN-γ [1, 16]: 2920 pg/mL
Cytokines IFN [1, 17]: 50 ± 59 unit/ml
Cytokines TNF [1, 17]: 316 ± 371 unit/ml
Cytokines IFN [1, 18]: 344 ± 254 unit/ml
Cytokines TNF [1, 18]: 670 ± 560 unit/ml
Cytokines IFN [1, 19]: 15 ± 9 unit/ml
Cytokines TNF [1, 19]: 182 ± 158 unit/ml
Cytokines IFN [1, 20]: 21 ± 14 unit/ml
Cytokines TNF [1, 20]: 249 ± 187 unit/ml
Cytokines IFN ([2]; dose 1 μg/ml): 38 ± 66 unit/ml
Cytokines TNF ([2]; dose 1 μg/ml): 16 ± 17 unit/ml
Cytokines IFN ([2]; dose 10 μg/ml): 78 ± 80 unit/ml
Cytokines TNF ([2]; dose 10 μg/ml): 37 ± 35 unit/ml
Cytokines IFN ([2]; dose 20 μg/ml): 89 ± 79 unit/ml
Cytokines TNF ([2]; dose 20 μg/ml): 59 ± 41 unit/ml
LD50 (mice): above 1.25 g/kg of body weight
development of haemolytic anaemia (mice of the NZB line): inhibits the development of haemolytic anaemia
growth of sarcoma 180 (sarcoma 180): inhibit the growth of sarcoma 180
protection against radiation sickness [3]: protects the animals against radiation sickness
clinical effect in patients with Alzheimer's disease [4, 21]: improvement of contact and uplift of mood were observed
reactivity to induction of IFN and TNF-α after treatment [4, 21]: induced a state of hyporeactivity or tolerance
time course of hyporeactivity to induction of IFN-γ (FIG. 1) ([4]; patient five, 100 μg tablet every other day for three weeks, then 3-week pause): hyporeactivity appears as early as during the first week
reactivity to induction of IFN-γ and TNF-α (human volunteers): state of hyporeactivity

VESYVPLFP [NP, nonapeptide fragment of Colostrinin obtained by chymotrypsin digestion or chemical synthesis]
clinical effect in patients with Alzheimer's disease [4, 22]: improvement of contact and uplift of mood were observed
reactivity to induction of IFN and TNF-α after treatment [4, 22]: induced a state of hyporeactivity or tolerance

phytohaemagglutinin [PHA, reference compound]
Cytokines IFN ([2]; PHA dose 10 μg/ml): 75 ± 66 unit/ml
Cytokines TNF ([2]; PHA dose 10 μg/ml): 83 ± 69 unit/ml
